In patent US20250221967A1, “COMPOSITIONS AND METHODS FOR THE TREATMENT OF CANCER AND OTHER PROLIFERATIVE DISEASES” (THE WISTAR INSTITUTE OF ANATOMY AND BIOLOGY, priority 2022, published 2025):
“Also recorded” adds a separate entry of the source. Values belong to the compound of their own block, whether it stands above or below them.

Columns and labels:
[1] = molecular target: T1, HDAC1 binding Rb-NT (380-785) (Homo sapiens, UniProt P06400); assay: Inhibition of HDAC1 binding to Rb-NT (380-785); details: for Inhibition of HDAC1 binding Rb-NT (380-785) Top: top of inhibition curve
T1 construct: Rb-NT (380-785)
T1 sequence (P06400 380-785): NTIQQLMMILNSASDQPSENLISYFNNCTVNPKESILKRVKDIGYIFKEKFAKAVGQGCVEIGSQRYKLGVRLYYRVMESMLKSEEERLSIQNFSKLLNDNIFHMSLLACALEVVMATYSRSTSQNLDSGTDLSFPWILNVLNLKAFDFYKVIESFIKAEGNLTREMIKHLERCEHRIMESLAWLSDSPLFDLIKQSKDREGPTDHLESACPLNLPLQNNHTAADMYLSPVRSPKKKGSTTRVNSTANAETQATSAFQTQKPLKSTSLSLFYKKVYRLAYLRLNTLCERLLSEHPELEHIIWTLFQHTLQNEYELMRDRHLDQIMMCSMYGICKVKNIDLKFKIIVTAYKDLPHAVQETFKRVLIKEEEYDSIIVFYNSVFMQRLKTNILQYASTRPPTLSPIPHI
Experimental: Additionally, the binding of different proteins was evaluated. The binding of E7, E2F1, MDM2, and HDAC1 were evaluated to Rb fragments. The compounds tested herein where shown inhibit HDAC1 binding to the Rb fragments in the LxCxE binding pocket.

Rb-NT (380-785) = molecular target: T2, Rb-NT (380-785) (Homo sapiens, UniProt P06400); assay: Inhibition of AP-8-239 binding to Rb-NT (380-785); details: for Inhibition of AP-8-239 binding Rb-NT (380-785) Top: top of inhibition curve
T2 construct: Rb-NT (380-785)
T2 sequence (P06400 380-785): T1 sequence (P06400 380-785)

[2] = test system: tumor-associated macrophages; assay: Flow cytometry of immune cells in orthotopic PDA T high model; type: in vivo, mice
Experimental: FIGS. 3A-B. AP-3-84 depletes tumor macrophages and re-shapes immune cell landscape. (FIGS. 3A-B) B6 wild-type mice were orthotopically injected with PDA T high cell line into the pancreas and treated with AP-3-84 or vehicle as in FIGS. 2A-D. Tumor cells on day 12 (FIG. 3A) or peritoneum cells on day 21 (FIG. 3B) were analyzed by flow cytometry. […] Significant effects on activation and differentiation of immune cells in tumor and periphery were also found (not shown).

PDA T high cell line [3] = assay: Orthotopic PDA T high tumor model in NSG immunodeficient mice; type: in vivo
Experimental: (§1) (FIGS. 2A-B) B6 wild-type mice were orthotopically injected with PDA T high cell line into the pancreas. T high PDA cell line was previously generated by Dr. Stanger's lab (Upenn), this tumor cell line can induce some T cell infiltration opposite to T low PDA cell line (shown in FIGS. 4A-C). Mice were treated with 7 daily AP-3-84 or vehicle starting from day 4. On day 22 pancreatic tumors were collected and compared across two groups. […] (FIG. 2C) B6 wild-type mice were injected subcutaneously with PDA T high tumor cells and treated with AP-3-84 or vehicle as in FIGS. 2A-B. Tumor growth was measured until day 31. […] (FIG. 2D) Same experiment as in FIGS. 2A-B was conducted in NSG immunodeficient mice.

[4] = test system: AML cell lines (THP-1, AML-193, Kasumi-1); assay: Cell death in AML cell lines (Annexin-V flow cytometry, Alamar blue); type: cell-based
Experimental: (§2) Additionally, the inventors obtained test results showing the compounds to be effective in models of AML. AML cell lines (THP-1, AML-193, Kasumi-1) were cultured at different cell concentration (75000/ml, 125,000/ml and 200,000/ml) and exposed to 5, 10, 15, 20 μM concentration of AP-3-84. Cell differentiation was induced by 100 ng/ml PMA over 24 hours. Nonhemopoietic cancer cells (ID8, PDAC) were analyzed after exposure to AP-3-84. Cell death outcomes were measured by Annexin-V using flowcytometry or viability measures by Alamar blue assay. Protein levels were measured by Western blots at intervals between 30 min and 6 hours after exposure to AP-3-84 for total Rb1, phosphorylated Rb1, ATF3, BIM, NOXA, BaK, Bax, cleaved PARP, cleaved Caspase-3. Cytoplasmic and mitochondrial lysates were examined. Confocal immunocytochemistry on Rb1 expression in nucleus versus cytoplasm was performed.

[5] = test system: Nonhemopoietic cancer cells (ID8, PDAC); assay: Cell death in nonhemopoietic cancer cells; type: cell-based; details: listed as AP-3-84
Experimental: as §2

Tumor PDAC cells = assay: Tumor cell viability by Annexin V/DAPI staining; type: cell-based; details: different concentrations, 16 hours, listed as AP-3-84
Experimental: (§3) FIGS. 1A-B. Novel Rb1 modulator AP-3-84 induces cell death specifically in macrophages. (FIG. 1A) Tumor PDAC cells and thioglycolate-induced macrophages were cultured with different concentrations of AP-3-84 Rb1 modulator for 16 hours with the following assessment of viability by Annexin V/DAPI staining. […] (FIG. 1B) Thioglycollate-induced macrophages were cultured with 10 uM AP-3-84 for 4 hours and gene expression changes were studied by RNA-Seq.

PDA T low cell line = assay: PDA T low tumor model (orthotopic or subcutaneous) in B6 wild-type mice; type: in vivo
Experimental: FIGS. 4A-C. AP-3-84 renders more resistant PDA tumors with low T cell infiltration into immunotherapy responsive tumors. […] Statistical analysis of the data was conducted using unpaired Student t-test criteria with additional false discovery rate adjustment for multiple comparisons for gene expression analysis.

PDA T high cell line [6] = assay: Orthotopic PDA T high pancreatic tumor model in B6 wild-type mice; type: in vivo; details: 7 daily treatments from day 4, tumors collected day 22, listed as AP-3-84
Experimental: as §1
Statistical analysis of the data was conducted using unpaired Student t-test criteria with additional false discovery rate adjustment for multiple comparisons for gene expression analysis.

[7] = test system: nonhemopoitic cancer cells; assay: Cell proliferation by CFSE dye dilution; type: cell-based; details: nonhemopoietic cancer cells
From the text: FIG. 22A-22C. […] A. Graphs indicates the total percentage of cell death (annexin V+ and AnnexinV+Live-Dead+ cells) in PMA treated THP-1 cells. […] C. Histogram indicates cell proliferation, measured by CSFE dye dilution in presence of AP-3-84 and other inhibitors. Bar diagram indicates average MFI of CFSE dye in presence of different inhibitors.

PDA T high tumor cells = assay: Subcutaneous PDA T high tumor model in B6 wild-type mice; type: in vivo; details: measured until day 31
Experimental: as §1

[8] = test system: Thioglycollate-induced macrophages; assay: Gene expression changes by RNA-Seq; type: cell-based; details: 10 uM, 4 hours, listed as AP-3-84
Experimental: as §3

[9] = test system: thioglycolate-induced macrophages; assay: Macrophage viability by Annexin V/DAPI staining; type: cell-based; details: different concentrations, 16 hours, listed as AP-3-84
Experimental: as §3

THP-1 cell line = assay: Western blots of ER stress and apoptosis proteins; type: cell-based; details: Western blot, listed as AP-3-84
Experimental: as §2

Rb protein = molecular target: T3, Rb protein (Homo sapiens, UniProt P06400); assay: Iodoacetamide capping of Cys residues of compound-treated Rb protein, MALDI-MS; details: for # of CH2CONH2: RB + compound + Iodoacetamide, RB + DMSO control gives 8; for Cys residues masked from reacting with the iodoacetamide: Rb protein treated with compound, then iodoacetamide
T3 sequence (P06400 380-785 limits assumed): T1 sequence (P06400 380-785)
Experimental: Further studies were conducted to evaluate the binding of the compounds to the Rb protein. Using MS, the […] that had been treated with excess amounts of the compounds were then capped with iodoacetamide. […] Furthermore, there was a significant reduction in MS/MS sequencing events. […] One explanation is that the compound activates Cys706 for nucleophilic attack from Cys712.
In order to confirm that, the Rb protein was treated with iodoacetamide to cap the Cys residues. The predicted chart is shown below.

[10] = test system: PMA differentiated THP1 cells; assay: Cell death in PMA differentiated THP-1 cells; type: cell-based; details: PMA treated THP-1 cells; listed as AP-3-84
Experimental: as §2

IC50 [1]: 89 nM
Inhibition of HDAC1 binding Rb-NT (380-785) Top [1]: 75%
IC50 (Rb-NT (380-785)): 445 nM
Inhibition of AP-8-239 binding Rb-NT (380-785) Top (Rb-NT (380-785)): 90.1%
# of CH2CONH2 (Rb protein): 2
Cys residues masked from reacting with the iodoacetamide (Rb protein): 6
SMILES: COc1cccc(-n2sc(=O)n(C)c2=O)c1 [AP-03-084]
immune cell composition in the peritoneum ([2]; peritoneum cells on day 21, flow cytometry): re-shapes the immune cell composition in the peritoneum
tumor-associated macrophages in tumors ([2]; tumor cells on day 12, flow cytometry, listed as AP-3-84): depleting macrophages and inducing T cell infiltration; also recorded: effectively depletes tumor-associated macrophages in tumors
tumor growth (PDA T high cell line [3]): No effect of AP-3-84 treatment was observed
cells undergoing cell death ([4]; 5 minute exposure, 24 hours later): 70-80%
concentration at which induction of cell death was observed ([4]; AML cells, tested at 5, 10, 15, 20 μM): ≥ 10 µM
cell death in AML cell lines ([4]; THP-1, AML-193, Kasumi-1, annexin V+ and AnnexinV+Live-Dead+ cells): induced cell death in different AML cell lines
cell death [5]: no cell death was induced; also recorded: does not induce cell death in ID8 cells
PDA tumor cell viability / death of other cell types (Tumor PDAC cells): not of the other cell types (neither tumor nor T cells); also recorded: didn't affect PDA tumor cell viability
tumor growth, AP-3-84 treatment alone (PDA T low cell line; orthotopic and subcutaneous models): didn't dramatically affect the tumor growth
tumor growth, combined with Immunotherapy (PDA T low cell line; with anti-PD1/anti-CTLA4/anti-CD40, listed as AP-3-84): decrease tumor burden in T-low-PDA model; also recorded: effectively reduced the tumor growth compared to monotherapies
pancreatic tumor growth (PDA T high cell line [6]): significant reduction of tumor growth; also recorded: significantly reduced the tumor growth in mice
cell division rate [7]: No effect in cell division rate
tumor growth (PDA T high tumor cells): Significant reduction of tumor growth
gene expression changes [8]: induction of oxidative and ER stress programs with a clear activation of p53-dependent genes and caspases; also recorded: induced strong unfolded protein and oxidative stress response with the induction of apoptosis pathway and p53 signaling
macrophage cell death [9]: can induce cell death of TAMs and thioglycolate-induced macrophages; also recorded: induced macrophage cell death in dose-dependent manner
apoptosis proteins (NOXA, BIM, cleaved-PARP, cleaved Caspase-3) (THP-1 cell line; 10 uM in FIG. 23A): increased mitochondrial protein levels of NOXA, BIM, cleaved-PARP, and cleaved Caspase-3; also recorded: induction of Cleaved-PARP, Noxa and Cleaved-caspase 3
Bax, Bak, Bcl-2, Bcl-xl levels (THP-1 cell line): Bax and Bak levels were unchanged; also recorded: Bax Bcl-2 and Bcl-xl does not get altered
ER-stress signals (ATF4, ATF3, peIF2a) (THP-1 cell line): induced higher levels of ER-stress signals (higher ATF4, ATF3); also recorded: Induction of ATF4, ATF3 and peIF2a
cell death [10]: no cell death was induced; also recorded: minor effect on PMA treated THP-1 cells

IC50 [1]: 77 nM
Inhibition of HDAC1 binding Rb-NT (380-785) Top [1]: 72%
IC50 (Rb-NT (380-785)): 362 nM
Inhibition of AP-8-239 binding Rb-NT (380-785) Top (Rb-NT (380-785)): 83.3%
SMILES: Cn1c(=O)sn(-c2cccc(OCCCN)c2)c1=O [AP-08-231]

IC50 [1]: 83 nM
Inhibition of HDAC1 binding Rb-NT (380-785) Top [1]: 71%
IC50 (Rb-NT (380-785)): 54 nM
Inhibition of AP-8-239 binding Rb-NT (380-785) Top (Rb-NT (380-785)): 90.6%
SMILES: Cn1c(=O)sn(-c2cccc(OCCCNC(=O)c3ccccc3)c2)c1=O [AP-08-238]

The remaining lines, values behind:

SMILES: Cn1c(=O)sn(-c2cccc(OCCCNC(=O)CC[C@@H](NC(=O)c3ccc(NCCc4cc5c(=O)[nH]c(N)nc5[nH]4)cc3)C(=O)O)c2)c1=O [AP-08-237]
IC50 [1]: 171 nM
Inhibition of HDAC1 binding Rb-NT (380-785) Top [1]: 72%
IC50 (Rb-NT (380-785)): 22 nM
Inhibition of AP-8-239 binding Rb-NT (380-785) Top (Rb-NT (380-785)): 85.9%

SMILES: Cn1c(=O)sn(-c2cccc(OCCCNC(=S)Nc3ccc4c(c3)C(=O)OC43c4ccc(O)cc4Oc4cc(O)ccc43)c2)c1=O [AP-08-239]
# of CH2CONH2 (Rb protein): 6
Cys residues masked from reacting with the iodoacetamide (Rb protein): 2

SMILES: C=CC(=O)N(C)C(=O)Nc1cccc(OC)c1 [SA-01-048]
IC50 [1]: 12700 nM
Inhibition of HDAC1 binding Rb-NT (380-785) Top [1]: 69%
IC50 (Rb-NT (380-785)): 2920 nM
Inhibition of AP-8-239 binding Rb-NT (380-785) Top (Rb-NT (380-785)): 83.8%

SMILES: O=c1sn(-c2cccc3ccccc23)c(=O)n1Cc1ccccc1 [Tideglusib, reference compound]
IC50 [1]: 40 nM
Inhibition of HDAC1 binding Rb-NT (380-785) Top [1]: 77%
IC50 (Rb-NT (380-785)): 126 nM
Inhibition of AP-8-239 binding Rb-NT (380-785) Top (Rb-NT (380-785)): 86.9%
